pEC50: −log10 of the molar value.
What was measured:
Type in all cases: cell-based
Kv7.3* = molecular target: T1, Kv7.3* (Homo sapiens, UniProt O43525, A315T); test: two-electrode voltage clamp, shift of V0.5act, dose response
T1 construct: gene KCNQ3; Kv7.3* homomer expressed in Xenopus oocytes
T1 sequence (O43525 1-872 A315T): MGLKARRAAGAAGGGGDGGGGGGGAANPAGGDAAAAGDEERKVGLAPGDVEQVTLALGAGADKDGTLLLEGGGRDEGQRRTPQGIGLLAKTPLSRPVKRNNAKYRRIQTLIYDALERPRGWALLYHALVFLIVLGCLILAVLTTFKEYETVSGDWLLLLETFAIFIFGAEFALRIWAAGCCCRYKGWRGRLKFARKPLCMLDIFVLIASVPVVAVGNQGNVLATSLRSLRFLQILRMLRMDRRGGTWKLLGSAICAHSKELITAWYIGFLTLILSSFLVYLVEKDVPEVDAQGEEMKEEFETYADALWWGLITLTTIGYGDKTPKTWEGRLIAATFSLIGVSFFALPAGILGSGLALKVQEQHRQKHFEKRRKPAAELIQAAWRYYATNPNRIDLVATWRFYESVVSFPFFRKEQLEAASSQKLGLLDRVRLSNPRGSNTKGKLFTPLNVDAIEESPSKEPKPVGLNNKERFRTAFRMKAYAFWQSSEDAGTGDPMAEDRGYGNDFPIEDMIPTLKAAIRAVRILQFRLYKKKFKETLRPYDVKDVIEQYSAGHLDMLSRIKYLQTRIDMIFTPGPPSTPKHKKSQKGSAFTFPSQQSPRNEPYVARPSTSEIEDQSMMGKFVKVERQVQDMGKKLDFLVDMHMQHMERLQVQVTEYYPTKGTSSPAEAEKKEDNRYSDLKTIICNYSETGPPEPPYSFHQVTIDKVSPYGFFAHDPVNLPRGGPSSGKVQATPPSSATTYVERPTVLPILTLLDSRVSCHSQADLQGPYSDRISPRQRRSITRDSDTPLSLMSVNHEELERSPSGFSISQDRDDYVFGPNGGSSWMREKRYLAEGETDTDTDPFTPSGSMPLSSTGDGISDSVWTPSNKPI

Kv7.3 [1] = molecular target: T2, Kv7.3 (Homo sapiens, UniProt O43525); test: as above
T2 construct: gene KCNQ3; Kv7.2/3 heteromer expressed in Xenopus oocytes; with Kv7.2 (KCNQ2)
T2 sequence (O43525 whole entry): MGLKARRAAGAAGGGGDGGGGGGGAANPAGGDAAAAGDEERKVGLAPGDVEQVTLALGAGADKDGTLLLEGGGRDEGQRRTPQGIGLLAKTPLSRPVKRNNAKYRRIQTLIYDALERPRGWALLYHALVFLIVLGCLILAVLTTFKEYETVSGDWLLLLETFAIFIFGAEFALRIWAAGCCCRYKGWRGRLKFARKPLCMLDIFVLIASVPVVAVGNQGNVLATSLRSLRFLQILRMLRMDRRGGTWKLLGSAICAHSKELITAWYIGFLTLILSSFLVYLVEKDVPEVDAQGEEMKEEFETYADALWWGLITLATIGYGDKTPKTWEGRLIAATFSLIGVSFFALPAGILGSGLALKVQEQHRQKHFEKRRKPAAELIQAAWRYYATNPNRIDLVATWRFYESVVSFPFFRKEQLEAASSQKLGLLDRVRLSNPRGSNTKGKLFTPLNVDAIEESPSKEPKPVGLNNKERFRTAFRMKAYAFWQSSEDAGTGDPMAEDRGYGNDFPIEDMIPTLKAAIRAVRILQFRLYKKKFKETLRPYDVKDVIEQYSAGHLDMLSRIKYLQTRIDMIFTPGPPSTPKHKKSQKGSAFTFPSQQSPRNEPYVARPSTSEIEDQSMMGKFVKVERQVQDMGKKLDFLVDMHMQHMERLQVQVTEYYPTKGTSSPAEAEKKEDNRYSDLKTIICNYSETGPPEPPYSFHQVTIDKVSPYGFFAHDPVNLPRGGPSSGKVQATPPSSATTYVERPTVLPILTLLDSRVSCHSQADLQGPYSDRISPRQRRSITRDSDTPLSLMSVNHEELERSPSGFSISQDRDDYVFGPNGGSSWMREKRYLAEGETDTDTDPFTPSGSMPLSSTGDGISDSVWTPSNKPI
T2 sequence (O43526 whole entry partner): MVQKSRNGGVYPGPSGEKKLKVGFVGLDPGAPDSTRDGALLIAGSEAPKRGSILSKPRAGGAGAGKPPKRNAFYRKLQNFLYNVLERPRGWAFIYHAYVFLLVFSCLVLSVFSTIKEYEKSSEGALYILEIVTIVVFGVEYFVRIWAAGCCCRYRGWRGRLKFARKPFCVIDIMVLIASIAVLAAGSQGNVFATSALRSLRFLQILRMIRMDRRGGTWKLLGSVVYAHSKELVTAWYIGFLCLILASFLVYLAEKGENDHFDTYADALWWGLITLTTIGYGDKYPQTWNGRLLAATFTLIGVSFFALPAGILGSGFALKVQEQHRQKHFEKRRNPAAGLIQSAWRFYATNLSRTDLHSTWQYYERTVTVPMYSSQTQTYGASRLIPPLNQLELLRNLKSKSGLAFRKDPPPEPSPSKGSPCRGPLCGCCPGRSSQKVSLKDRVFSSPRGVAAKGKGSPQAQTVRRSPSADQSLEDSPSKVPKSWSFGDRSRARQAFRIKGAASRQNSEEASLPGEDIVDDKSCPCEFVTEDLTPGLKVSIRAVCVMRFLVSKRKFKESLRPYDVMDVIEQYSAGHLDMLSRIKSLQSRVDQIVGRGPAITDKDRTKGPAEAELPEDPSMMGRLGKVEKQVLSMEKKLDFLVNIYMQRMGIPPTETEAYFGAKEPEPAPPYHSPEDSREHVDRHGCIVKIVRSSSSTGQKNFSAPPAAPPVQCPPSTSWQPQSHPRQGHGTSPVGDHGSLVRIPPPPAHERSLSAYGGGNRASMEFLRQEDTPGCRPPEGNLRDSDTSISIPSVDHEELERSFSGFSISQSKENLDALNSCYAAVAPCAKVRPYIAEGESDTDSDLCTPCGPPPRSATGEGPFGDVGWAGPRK

Kv7.3 [2] = molecular target: T2, Kv7.3; test: two-electrode voltage clamp at […], shift of V0.5act

| pEC50 (Kv7.3*) | pEC50 (Kv7.3 [1]) | SMILES | two-electrode voltage clamp at 100 μM, shift of V0.5act (Kv7.3 [2]) |
| --- | --- | --- | --- |
| 9.10 | 8.55 | O=C(O)c1cc(O)ccc1O [GA, gentisic acid] | – |
| – | – | O=S(=O)(O)c1cc(O)ccc1O [calcium dobesilate] | one analog of GA did exhibit similar efficacy to that of GA—the sulfonic acid, calcium dobesilate |

Reference: PMC11467302, “Discovery of a potent, Kv7.3-selective potassium channel opener from a Polynesian traditional botanical anticonvulsant” (Communications Chemistry, 2024)
